In patent US4550186A, “Binuclear copper (II) carboxylates formed from amine-carboxyboranes” (Duke University, priority 1983, dated 1985):

Columns and labels:
CF1 male mice [1] = experiment: Acute toxicity (LD50); format: in vivo, mouse; settings: CF1 mice intraperitoneally, single dose, 7 days
Protocol: The acute toxicity (LD50 values) was determined in CF1 male mice by administering test drugs intraperitoneally from 5-50 mg/kg as a single dose. The number of deaths recorded over 7 days in the group was determined for each dosage.

Acetyl CoA Carboxylase = target: T1, Acetyl CoA Carboxylase (Mus musculus, UniProt Q5SWU9); experiment: In vitro liver enzyme study: acetyl CoA carboxylase; format: biochemical; settings: in vitro CF1 liver
T1 construct: 10% homogenates of CF1 male mouse liver; from tissue; host or cells: CF1 male mouse liver, 10% homogenate
Protocol: (§1) In vitro enzymatic studies were determined using 10% homogenates of CF1 male mouse liver with 50-200 μM of test drugs. In vivo enzymatic studies were determined using 10% homogenates of liver from CF1 male mice obtained after administering the agents for 16 days at a dose ranging from 2.5-20 mg/kg/day intraperitoneally. The liver homogenates for both in vitro and in vivo studies were prepared in 0.25M sucrose and 0.001M (ethylenedinitrilo)tetraacetic acid. Acetyl coenzyme A synthetase and adenosine triphosphate dependent citrate lyase activities were determined spectrophotometrically at 540 nm as the hydroxylamate of acetyl coenzyme A formed after 30 min at 37° C. Mitochondrial citrate exchange was determined by the procedure of Robinson et al [Eur. J. Biochem., 216, 63 (1970)] using ^14 C-sodium bicarbonate (41 mCi/mmol) incorporated into mitochondrial ^14 C-citrate after isolating rat mitochondria (9000 g×10 min) from the homogenates. The exchanges of the ^14 C-citrate were determined after incubating the mitochondrial fraction which was loaded with labeled citrate and test drugs for 10 min. Then the radioactivity was measured in the mitochondrial and supernantant fractions in scintillation fluid and expressed as a percentage. Cholesterol side chain oxidation was determined by the method of Kritchevsky and Tepper [Artherosclerosis, 18, 93 (1973)] using (26-^14 C) cholesterol (50 mCi/mmol) and mitochondria isolated from rat liver homogenates. […] Fatty acid synthetase activity was determined by the method of Brady et al [J. Biol. Chem., 235, 3093 (1960)] using [2-^14 C] malonyl-coenzyme A (37.5 mCi/mmol) which was incorporated into newly synthesized fatty acids that were extracted with ether and counted. Acyl transferase activity was determined with glycerol-3phosphate [L-2-^3 H(N)] […] HCl and counted. Phosphatidate phosphohydrolase activity was measured as the inorganic phosphate released after 30 min from phosphatidic acid by the method of Mavis et al [J. Lipid Res., 19, 467 (1978)]. […]

[2] = tested on: sn-Glycerol-3-phosphate Acyl Transferase; experiment: In vitro liver enzyme study: sn-glycerol-3-phosphate acyl transferase; format: biochemical, mouse; settings: in vitro CF1 liver
Protocol: as §1

CF1 male mice [3] = experiment: Mouse liver lipid content; format: in vivo; settings: 16 days
Protocol: In CF1 male mice that had been administered test drugs for 16 days, the liver, small intestine and fecal materials (24 hr collection) were removed and a 10% homogenate in 0.25M sucrose+0.001M (ethylenedinitrilo)tetraacetic acid was prepared. An aliquot (2 ml) of the homogenate was extracted by the methods of Floch et al [J. Biol. Chem., 226, 497 (1957)] and Bligh and Dyer [Can. J. Biochem. Physiol., 37, 911 (1957)] and the number of mg of lipid weighed. The lipid was taken up in methylene chloride and the cholesterol level triglyceride levels, neutral lipid content and phospholipid content were determined.
Data are expressed in the Table 2-7 as percent of control ± the standard deviation. The probable significant level (P) between each test group and the control group was determined by the Student's "t" test.

Holtzman male rats = experiment: 3H-Cholesterol distribution in rats; format: in vivo, rat; settings: for Orally administered 3H-Cholesterol: 14 days 10 mg/Kg/Day, Treated
Protocol: Holtzman male rats (~350 g) were administered the test agent for 14 days orally. On day 13, 10 μCi of ^3 H-cholesterol (40.7 mCi/mmol) was administered intraperitoneally in mice and orally in rats, and feces were collected for the next 24 hr. Twenty-four hours after cholesterol administration, the major organs were excised and samples of blood, chyme and urine were obtained. Homogenates (10%) were prepared of the tissues which were combusted and counted. Some tissue samples were plated on Whatman #1 filter paper, dried and digested for 24 hr in base at 40° C. and counted. Results were expressed as dpm/mg of wet tissue and dpm/per total organ.

{Cu[(CH3)3 N.BH2 CO2 ]2.(CH3)3 N.BH2 COOH} [Compound I]
LD50 (CF1 male mice [1]): 39.2 mg/kg | Acetyl CoA Carboxylase (Acetyl CoA Carboxylase; 50 μM): 96 ± 6 Percent Control | Acetyl CoA Carboxylase (Acetyl CoA Carboxylase; 100 μM): 93 ± 5 Percent Control | Acetyl CoA Carboxylase (Acetyl CoA Carboxylase; 200 μM): 92 ± 5 Percent Control | sn-Glycerol-3-phosphate Acyl Transferase ([2]; 50 μM): 108 ± 6 Percent Control | sn-Glycerol-3-phosphate Acyl Transferase ([2]; 100 μM): 92 ± 8 Percent Control | sn-Glycerol-3-phosphate Acyl Transferase ([2]; 200 μM): 89 ± 6 Percent Control | Cholesterol (CF1 male mice [3]; 2.5 mg/kg): 71 ± 6% of control | Mg of Lipid (CF1 male mice [3]; 2.5 mg/kg): 82 ± 5% of control | Neutral Lipids (CF1 male mice [3]; 2.5 mg/kg): 79 ± 5% of control | Phospholipids (CF1 male mice [3]; 2.5 mg/kg): 67 ± 6% of control | Protein (CF1 male mice [3]; 2.5 mg/kg): 105 ± 6% of control | Triglycerides (CF1 male mice [3]; 2.5 mg/kg): 40 ± 3% of control | Cholesterol (CF1 male mice [3]; 5.0 mg/kg): 74 ± 7% of control | Mg of Lipid (CF1 male mice [3]; 5.0 mg/kg): 85 ± 6% of control | Neutral Lipids (CF1 male mice [3]; 5.0 mg/kg): 86 ± 5% of control | Phospholipids (CF1 male mice [3]; 5.0 mg/kg): 92 ± 7% of control | Protein (CF1 male mice [3]; 5.0 mg/kg): 92 ± 5% of control | Triglycerides (CF1 male mice [3]; 5.0 mg/kg): 38 ± 4% of control | Cholesterol (CF1 male mice [3]; 10.0 mg/kg): 77 ± 7% of control | Mg of Lipid (CF1 male mice [3]; 10.0 mg/kg): 95 ± 6% of control | Neutral Lipids (CF1 male mice [3]; 10.0 mg/kg): 87 ± 4% of control | Phospholipids (CF1 male mice [3]; 10.0 mg/kg): 152 ± 8% of control | Protein (CF1 male mice [3]; 10.0 mg/kg): 101 ± 8% of control | Triglycerides (CF1 male mice [3]; 10.0 mg/kg): 36 ± 5% of control | Orally administered 3H-Cholesterol (Holtzman male rats; rat Brain): 15,783 DPM/Total Organ | Orally administered 3H-Cholesterol (Holtzman male rats; rat Chyme): 218,742 DPM/Total Organ | Orally administered 3H-Cholesterol (Holtzman male rats; rat Feces): 294,644 DPM/Total Organ | Orally administered 3H-Cholesterol (Holtzman male rats; rat Heart): 20,060 DPM/Total Organ | Orally administered 3H-Cholesterol (Holtzman male rats; rat Kidney): 565 DPM/Total Organ | Orally administered 3H-Cholesterol (Holtzman male rats; rat Large Intestine): 59,665 DPM/Total Organ | Orally administered 3H-Cholesterol (Holtzman male rats; rat Liver): 27,695 DPM/Total Organ | Orally administered 3H-Cholesterol (Holtzman male rats; rat Lung): 17,106 DPM/Total Organ | Orally administered 3H-Cholesterol (Holtzman male rats; rat Small Intestine): 16,514 DPM/Total Organ | Orally administered 3H-Cholesterol (Holtzman male rats; rat Spleen): 13,241 DPM/Total Organ | Orally administered 3H-Cholesterol (Holtzman male rats; rat Stomach): 33,901 DPM/Total Organ | 3H-cholesterol reduced (dpm/organ vs control) (Holtzman male rats; rat brain): 46% | higher content of cholesterol (Holtzman male rats; rat chyme): 113% | 3H-cholesterol reduced (dpm/organ vs control) (Holtzman male rats; rat heart): 18% | 3H-cholesterol reduced (dpm/organ vs control) (Holtzman male rats; rat kidney): 91% | higher content of cholesterol (Holtzman male rats; rat large intestine): 27% | 3H-cholesterol reduced (dpm/organ vs control) (Holtzman male rats; rat liver): 42% | higher content of cholesterol (Holtzman male rats; rat small intestine): 81% | higher content of cholesterol (Holtzman male rats; rat stomach): 198% | higher content of cholesterol (Holtzman male rats; rat urine): 336%
